One compound from patent US11389423B2, “Pharmaceutical composition, excipient for the composition and use of the composition” (priority 2018, dated 2022) can be followed below.

For series [1], the system named is male rabbits. The series can be described thus: Effects on respiratory system, respiratory rate. It counts as in vivo, New Zealand rabbits. Conditions: one hour after treatment. As to the method: Male New Zealand rabbits (n=6 per group) were used for pharmacological safety tests. All tests were performed orally (route recommended for humans) and the investigated parameters were determined after a single administration of CBD-SINT. CBD-SINT doses were determined by allometric extrapolation from the average dose used in human patients (25 mg/kg).
The dose of 51 mg/kg was used as the intermediate dose, stipulating a higher and a lower dose. Three dose ranges were used according to the Guide for Conducting Non-Clinical Toxicology and Pharmacological Safety Studies Necessary for Drug Development (ANVISA, 2013; Version 1.2). Thus, the doses used were 17, 51 and 170 mg/kg of CBD-SINT.
After 6-h fasting, three doses of CBD-SINT (17, 51 and 170 mg/kg) were administered to different groups of male rabbits by gavage. Placebo was administered to the control group (1 mL/kg). One hour after treatments, all rabbits remained conscious in the prone position. The respiratory rate was determined using a Kofranyi-Michaelis respirometer (Murphy, 2002). For arterial blood gas analysis, arterial blood samples were taken from the central ear artery and immediately processed. All parameters below were determined on a Cobas b 221 multiparametric blood gas analyzer (Roche Diagnostics, Rotkreuz, Switzerland): pH, PCO2 (mm Hg), PO2 (mm Hg), SO2(%), Htc (%), tHb (g/dL), Na+ (mmol/L), K+ (mmol/L), Ca2+ (mmol/L), Cl− (mmol/L), glucose (mg/dL), lactate (mmol/L), O2Hb (%), HHb (%), P50 (mm Hg), H+ (nmol/L), BE (nmol/L), BEecf (nmol/L), BB (mmol/L), cHCO3 (mmol/L), ctCO2 (B) (mmol/L), ctCO2 (P) (mmol/L) and ctO2 (% by volume).

Series [2] has as its system striatal levels of dopamine, DOPAC and AVM. The series can be described thus: Determination of striatal dopamine, DOPAC and HVA levels (HPLC-ECD), MPTP model. The series is classed as in vivo, rats. Here is the method: For the experiments with MPTP (neuroprotection), the animals were divided into the following experimental groups: • MPTP+placebo • MPTP+CBD-SINT 12 mg/kg • MPTP+CBD-SINT 36 mg/kg • MPTP+CBD-SINT 120 mg/kg • Sham+placebo • Naive
CBD-SINT and placebo were administered orally (gavage) for 18 days prior to the administration of the neurotoxin by stereotactic surgery, and for another 10 days after surgery. After the administration of the neurotoxin, the behavioral (locomotor activity) and biochemical (brain dopamine dosage) parameters were evaluated after 24 hours and after 10 days. The memory tests (Morris water maze) were performed daily from day 1 to day 10 after the administration of the neurotoxin (FIG. 13).
The rats were submitted to stereotactic surgery (stereotactic—David Kopf, model 957L) and received bilateral microinfusion of MPTP or 6-OHDA (different groups of rats) directly into the substantia nigra. For surgery, the following stereotaxic coordinates were used: anteroposterior: 5.0 mm from the bregma; mediolateral: ±2.1 mm from the midline and dorsoventral: −7.7 mm from the cranial vault (Paxinos and Watson, 1986). Then, 100 μg MPTP (diluted in 1 μL saline, with a flow of 0.33 μL/min) or 8 μg 6-OHDA (diluted in 2 μL saline with 0.2 μg/μL ascorbic acid, with a flow rate of 0.33 μL/min) were injected. The microinfusions were performed with the aid of a needle (30 gauge) connected to a polyethylene tube adapted to a […] micro-syringe (Hamilton, USA), which in turn, is fitted into an infusion pump (Harvard Apparatus, USA). After the end of the microinfusion, the needle was kept in place for another 2 minutes to prevent reflux of the neurotoxins. Then, the scalp was sutured, and the animals were removed from the stereotaxic. The rats were then placed in its original cages. The animals in the Sham groups were subject to the same surgical procedure, however without receiving the neurotoxins, being only introduced to the needle in the same stereotactic coordinates. The rats of naive groups were not subject to stereotactic surgery but were removed from the housing cage for handling for a few hours.
After the last set of experiments, the animals from the nigrostriatal treatment with MPTP and its respective controls were euthanized by decapitation. The levels of dopamine (DA) and its metabolites 3,4-dihydroxyphenylacetic acid (DOPAC) and homovanilic acid (HVA) were determined by high-performance liquid chromatography with an electrochemical detector (HPLC-ECD) according to Luo et al. (2009).
Briefly, the striatum was dissected, weighed, and homogenized in 0.2 M cold perchloric acid. The sample was then centrifuged twice at 14,000 g for 15 min at 4° C. […]

The test system of series [3] is rats with 6-OHDA microinfusion into the substantia nigra. Briefly: Morris water maze (cued test/memory version), 6-OHDA model. The series is classed as in vivo. Conditions: 6-OHDA rats, 36 or 120 mg/kg orally, day 18 to day 28. As to the method: For the experiments with 6-OHDA, the animals were divided into the following groups: • 6-OHDA+placebo • 6-OHDA+CBD-SINT 12 mg/kg • 6-OHDA+CBD-SINT 36 mg/kg • 6-OHDA+CBD-SINT 120 mg/kg • Sham+placebo • Naive
After the recovery period, CBD-SINT and placebo were administered orally (gavage) for 28 days. Locomotor activity tests were performed only at the end of treatments (day 28). The memory tests (Morris water maze) were performed daily from day 18 to day 28 (FIG. 14).
The rats were submitted to stereotactic surgery (stereotactic—David Kopf, model 957L) and received bilateral microinfusion of MPTP or 6-OHDA (different groups of rats) directly into the substantia nigra. For surgery, the following stereotaxic coordinates were used: anteroposterior: 5.0 mm from the bregma; mediolateral: ±2.1 mm from the midline and dorsoventral: −7.7 mm from the cranial vault (Paxinos and Watson, 1986). Then, 100 μg MPTP (diluted in 1 μL saline, with a flow of 0.33 μL/min) or 8 μg 6-OHDA (diluted in 2 μL saline with 0.2 μg/μL ascorbic acid, with a flow rate of 0.33 μL/min) were injected. […]
The animals were subjected to the same procedure until the four starting points are completed. […] The latency (time it takes the animals to find the platform) and the speed of the animals were quantified by the 2020 Plus Tracking System software.

Regarding `C=C(C)[C@@H]1CCC(C)=C[C@H]1c1c(O)cc(CCCCC)cc1O` [CBD-SINT, Cannabidiol], the respiratory rate is given as 55±6.48 bpm in series [1] (17 mg/kg by gavage), 57±5.43 bpm in series [1] (51 mg/kg by gavage) and 56±5.66 bpm in series [1] (170 mg/kg by gavage). For the same compound, the “striatal levels of DOPAC” value in series [2] (MPTP rats, 12 mg/kg orally) was “significantly increase”. In addition, the “striatal levels of dopamine” value in series [2] (MPTP rats, 12 mg/kg orally) is “significantly increase”. Besides, the “levels of all markers after treatment vs naive and Sham groups” value in series [2] (MPTP rats, 12, 36 and 120 mg/kg orally) is “statistically lower”. The “striatal concentration of all evaluated markers (dopamine, DOPAC and AVM)” value in series [2] (MPTP rats, 36 and 120 mg/kg orally) is “increased”. The “latency time to find the platform (memory deficit)” value in series [3] is recorded as “did not show this deficit”.
